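Assay format: 96-well plates, 48-hour exposure. At the TGI there is no net growth.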
Assays:
Test in all cases: growth of human tumour cells (NCI), 48 h
MDA-MB-435 = system: MDA-MB-435
A498 renal = system: A498 renal
K-562 leukemia = system: K-562 leukemia
HCT-116 colon = system: HCT-116 colon
HT29 colon = system: HT29 colon
NCI-H460 lung = system: NCI-H460 lung
MDA-N = system: MDA-N
OVCAR-4 ovarian = system: OVCAR-4 ovarian
ACHN renal = system: ACHN renal
CAKI-1 renal = system: CAKI-1 renal
HCC-2998 colon = system: HCC-2998 colon
NCI-H23 lung = system: NCI-H23 lung
SF-268 CNS = system: SF-268 CNS
RXF 393 renal = system: RXF 393 renal
CCRF-CEM leukemia = system: CCRF-CEM leukemia
T-47D breast = system: T-47D breast
OVCAR-5 ovarian = system: OVCAR-5 ovarian
RPMI-8226 leukemia = system: RPMI-8226 leukemia
PC-3 prostate = system: PC-3 prostate
SR leukemia = system: SR leukemia
COLO 205 colon = system: COLO 205 colon
SN12C renal = system: SN12C renal
SNB-75 CNS = system: SNB-75 CNS
SNB-19 CNS = system: SNB-19 CNS
LOX IMVI melanoma = system: LOX IMVI melanoma
A549 NSCLC = system: A549 NSCLC
TK-10 renal = system: TK-10 renal
MDA-MB-231 breast = system: MDA-MB-231 breast
NCI/ADR-RES ovarian = system: NCI/ADR-RES ovarian
M14 melanoma = system: M14 melanoma
UO-31 renal = system: UO-31 renal
MALME-3M melanoma = system: MALME-3M melanoma
U251 CNS = system: U251 CNS
SK-OV-3 ovarian = system: SK-OV-3 ovarian
HCT-15 colon = system: HCT-15 colon
HOP-62 NSCLC = system: HOP-62 NSCLC
UACC-257 melanoma = system: UACC-257 melanoma
OVCAR-3 ovarian = system: OVCAR-3 ovarian
DU-145 prostate = system: DU-145 prostate
MCF7 breast = system: MCF7 breast
SK-MEL-2 melanoma = system: SK-MEL-2 melanoma
SF-539 CNS = system: SF-539 CNS
SK-MEL-28 melanoma = system: SK-MEL-28 melanoma
HS 578T breast = system: HS 578T breast
MOLT-4 leukemia = system: MOLT-4 leukemia
OVCAR-8 ovarian = system: OVCAR-8 ovarian
EKVX NSCLC = system: EKVX NSCLC
SK-MEL-5 melanoma = system: SK-MEL-5 melanoma
786-0 renal = system: 786-0 renal
SW-620 colon = system: SW-620 colon
BT-549 breast = system: BT-549 breast
HOP-92 NSCLC = system: HOP-92 NSCLC
IGROV1 ovarian = system: IGROV1 ovarian
SF-295 CNS = system: SF-295 CNS
NCI-H226 lung = system: NCI-H226 lung
KM12 colon = system: KM12 colon
HL-60(TB) leukemia = system: HL-60(TB) leukemia
UACC-62 melanoma = system: UACC-62 melanoma
NCI-H522 lung = system: NCI-H522 lung

Measured: TGI

O=C(O)C1CC(O)CN1 (centres undefined)
> 100 µM: MDA-MB-435 | A498 renal | K-562 leukemia | HCT-116 colon | HT29 colon | NCI-H460 lung | MDA-N | OVCAR-4 ovarian | ACHN renal | CAKI-1 renal | HCC-2998 colon | NCI-H23 lung | SF-268 CNS | RXF 393 renal | CCRF-CEM leukemia | T-47D breast | OVCAR-5 ovarian | RPMI-8226 leukemia | PC-3 prostate | SR leukemia | COLO 205 colon | SN12C renal | SNB-75 CNS | SNB-19 CNS | LOX IMVI melanoma | A549 NSCLC | TK-10 renal | MDA-MB-231 breast | NCI/ADR-RES ovarian | M14 melanoma | UO-31 renal | MALME-3M melanoma | U251 CNS | SK-OV-3 ovarian | HCT-15 colon | HOP-62 NSCLC | UACC-257 melanoma | OVCAR-3 ovarian | DU-145 prostate | MCF7 breast | SK-MEL-2 melanoma | SF-539 CNS | SK-MEL-28 melanoma | HS 578T breast | MOLT-4 leukemia | OVCAR-8 ovarian | EKVX NSCLC | SK-MEL-5 melanoma | 786-0 renal | SW-620 colon | BT-549 breast | HOP-92 NSCLC | IGROV1 ovarian | SF-295 CNS | NCI-H226 lung | KM12 colon | HL-60(TB) leukemia | UACC-62 melanoma

CCOC(=O)c1ccc(NCC#CCN2CCCCC2)cc1
> 100 µM: MDA-MB-435 | A498 renal | K-562 leukemia | HCT-116 colon | HT29 colon | MDA-N | OVCAR-4 ovarian | ACHN renal | NCI-H23 lung | SF-268 CNS | RXF 393 renal | CCRF-CEM leukemia | T-47D breast | OVCAR-5 ovarian | RPMI-8226 leukemia | PC-3 prostate | SR leukemia | COLO 205 colon | SN12C renal | SNB-19 CNS | LOX IMVI melanoma | A549 NSCLC | MDA-MB-231 breast | NCI/ADR-RES ovarian | M14 melanoma | UO-31 renal | MALME-3M melanoma | U251 CNS | SK-OV-3 ovarian | HCT-15 colon | HOP-62 NSCLC | OVCAR-3 ovarian | DU-145 prostate | MCF7 breast | SK-MEL-2 melanoma | SF-539 CNS | SK-MEL-28 melanoma | HS 578T breast | MOLT-4 leukemia | EKVX NSCLC | SK-MEL-5 melanoma | 786-0 renal | SW-620 colon | BT-549 breast | HOP-92 NSCLC | IGROV1 ovarian | NCI-H226 lung | KM12 colon | HL-60(TB) leukemia | UACC-62 melanoma

CCOC(=O)NC(Nc1ccc(C(=O)OCC)cc1)(C(F)(F)F)C(F)(F)F
> 100 µM: MDA-MB-435 | A498 renal | K-562 leukemia | HCT-116 colon | HT29 colon | NCI-H460 lung | MDA-N | OVCAR-4 ovarian | ACHN renal | HCC-2998 colon | NCI-H23 lung | SF-268 CNS | CCRF-CEM leukemia | T-47D breast | OVCAR-5 ovarian | RPMI-8226 leukemia | PC-3 prostate | SR leukemia | COLO 205 colon | SN12C renal | SNB-75 CNS | SNB-19 CNS | LOX IMVI melanoma | A549 NSCLC | TK-10 renal | MDA-MB-231 breast | NCI/ADR-RES ovarian | NCI-H522 lung | M14 melanoma | UO-31 renal | MALME-3M melanoma | U251 CNS | SK-OV-3 ovarian | HCT-15 colon | HOP-62 NSCLC | OVCAR-3 ovarian | DU-145 prostate | MCF7 breast | SF-539 CNS | SK-MEL-28 melanoma | HS 578T breast | MOLT-4 leukemia | OVCAR-8 ovarian | SK-MEL-5 melanoma | 786-0 renal | SW-620 colon | BT-549 breast | HOP-92 NSCLC | IGROV1 ovarian | SF-295 CNS | NCI-H226 lung | KM12 colon | HL-60(TB) leukemia | UACC-62 melanoma

N#C/C(N)=C(\C#N)NC(=O)C(=O)N/C(C#N)=C(\N)C#N
> 100 µM: MDA-MB-435 | A498 renal | K-562 leukemia | HCT-116 colon | HT29 colon | NCI-H460 lung | MDA-N | OVCAR-4 ovarian | ACHN renal | CAKI-1 renal | HCC-2998 colon | NCI-H23 lung | SF-268 CNS | RXF 393 renal | CCRF-CEM leukemia | T-47D breast | OVCAR-5 ovarian | RPMI-8226 leukemia | PC-3 prostate | SR leukemia | COLO 205 colon | SN12C renal | SNB-75 CNS | SNB-19 CNS | LOX IMVI melanoma | A549 NSCLC | TK-10 renal | MDA-MB-231 breast | NCI/ADR-RES ovarian | NCI-H522 lung | M14 melanoma | UO-31 renal | MALME-3M melanoma | U251 CNS | HCT-15 colon | HOP-62 NSCLC | UACC-257 melanoma | OVCAR-3 ovarian | DU-145 prostate | MCF7 breast | SK-MEL-2 melanoma | SF-539 CNS | SK-MEL-28 melanoma | HS 578T breast | MOLT-4 leukemia | OVCAR-8 ovarian | EKVX NSCLC | SK-MEL-5 melanoma | 786-0 renal | SW-620 colon | BT-549 breast | HOP-92 NSCLC | IGROV1 ovarian | SF-295 CNS | NCI-H226 lung | KM12 colon | UACC-62 melanoma

Reference: PubChem BioAssay (NCI)
